From patent publication US8828993B2, “Psychotropic agents having glutamate NMDA activity” (Ramot At Tel-Aviv University Ltd., priority 2006, dated 2014)
Counter-ions that a name gives are not always drawn.

Experiments:
mice = assay: Forced swim test (FST); type: in vivo
Source text: This is one of the most widely used tools for screening antidepressant activity pre-clinically in acute treatment. The test was first described by Porsolt et al., (Behavioral despair in mice: a primary screening test for antidepressants. Arch. Int. Pharmacodyn. Ther. 229, pp. 327-336, 1977). The FST test is based on the observation that rats and mice develop an immobile posture when placed in an inescapable cylinder of water. This behavior is considered a behavioral despair as opposed to active form of coping with stressful conditions. The FST test is considered a good screening tool with good reliability and predictive validity.
Three parameters were defined in the evaluation of FST:
1. Immobility—defined in the traditional Porsolt test as when no additional activity is observed other than that required to keep the animal's head above water;
2. Swimming behavior—being the movement (usually horizontal) throughout the chamber that also includes crossing into another quadrant;
3. Climbing behavior—being defined as the upward-directed movements (vertical) of the forepaws along the side of the swim chamber.
The test in mice was conducted acutely (60-90 minutes post oral drug administration) and animals were dropped to the cylinder for 6 minutes and scoring was performed in the last 4 minutes after 2 minutes of adaptation.
Round glass cylinders, 18 cm in diameter and 20 cm deep were used. Water temperature was 24-28° C. Four parameters were taken: immobility, velocity, distance and strong mobility. The immobility in the animals was defined by activity lower than 10% movement of the center of gravity of the animal. Swimming was defined by the distance and the velocity of the animal, and climbing was related to strong mobility (movement of center of gravidance more than 30%).
Males Balb/c mice (Harlan Israel) were used. Animals were administered orally with Compound 1 (10 or 20 mg/kg) or with a vehicle.
Males ICR mice were used.

rats = assay: Morris Water Maze, spatial cognition; type: in vivo
Protocol: (§1) The Morris Water Maze is a well known test aimed to assess spatial cognitive tasks (Anger, et al., Animal test systems to study behavioral dysfunctions of neurodegenerative disorders, Neurotoxicology, 12, 403-13 (1991)). The maze consists of a circular pool measuring 1.80 m in diameter 60 cm in height. The pool was filled with water (21±1° C.) to a depth of 30 cm. A circular hidden escape platform (10 cm in diameter) was placed just below the water surface. The test room contained several permanent extra maze cues such as the rat housing rack, laboratory table, posters on the walls, etc.
as §1, with “tasks.” for “tasks (Anger, et al., Animal test systems to study behavioral dysfunctions of neurodegenerative disorders, Neurotoxicology, 12, 403-13 (1991)).”
In the experiment rats were given Compound 1 orally on day 1 and the first test begun 90 minute later, six trials per day, for 3 consecutive days, to find the hidden platform (acquisition phase). The escape latency, i.e., the time required by the rat to find and climb onto the platform, was recorded for up to 120 sec. Each rat was allowed to remain on the platform for 30 sec, after which it was removed to its home cage.
A video camera was placed above the center of the pool for tracking the rat, and a video tracking system (Noldus) with online digital output directly fed data into a computer. Data were analyzed using EthoVision automated tracking system software (Noldus).

[1] = male Balb/c mice, 10 mg/kg oral, vs vehicle

Compound: COC(=O)C(N)CN1CCN(C2=Nc3ccccc3Nc3sc(C)cc32)CC1 (stereo not shown) [Compound 1, 2-amino-3-[4-(2-methyl-10H-thieno[2,3-b][1,5]benzodiazepin-4-yl)-piperazin-1-yl]-propionic acid, methyl ester hydrochloride salt]
- distance moved (swimming behavior) (mice; [1]): significantly increased
- strong mobility (climbing behavior) (mice; [1]): significantly increased
- immobility (mice; male Balb/c mice, 20 mg/kg oral, vs vehicle): decreased
- distance moved (mice; male ICR mice, 20 mg/kg oral): did not modify
- immobility (mice; male ICR mice, 20 mg/kg oral): significantly decreased
- strong mobility (climbing) (mice; male ICR mice, 20 mg/kg oral): significantly decreased
- velocity (mice; male ICR mice, 20 mg/kg oral): did not modify
- latency to platform (task execution) (rats; 20 mg/kg po, second day): improvement
- latency to platform (learning of the spatial task) (rats; rats, 20 mg/kg po on day 1, first day): faster learning
- latency to platform (rats; rats, 10 and 20 mg/kg po, third day, between all groups): no difference
